According to US11752125B2, “Anti-neuroinflammatory and protective compounds in Achillea fragrantissima” (THE STATE OF ISRAEL MINISTRY OF AGRICULTURE & RURAL …, priority 2013, dated 2023):

How the values were obtained:
N2a neuronal cells [1] = assay: Aβ25-35-induced ROS elevation in N2a cells; type: cell-based; settings: Aβ25-35 25 μM, 20 hr
Description: 2. Plate N2a cells (10,000 cells/0.2 ml/well of 96 wells plate) in DMEM (high glucose, 225 ml), Opti-MEM (250 mil) containing 5% Fetal Bovine Serum, 2 mM L-Glutamine, 100 U/ml penicillin and 100 micrograms/mL streptomycin and incubate (37° C., 5% CO2) for 24 hr. 3. Replace the medium with a fresh one containing 20 micromolars 2′7′-dichlorofluorescein diacetate (DCF-DA); 4. Incubate 30 min (37° C., 5% CO2); 5. Wash twice with PBS; 6. Replace with fresh medium; 7. Read fluorescence of “time 0” at 485 nm (Extinction) and 528 nm (Emmision). 8. Incubate the cultured cells for 2 hours with freshly diluted TTF or AcA of the invention; 9. Add freshly diluted Aβ25-35 (25 micromolars); 10. Read fluorescence at 20 hr after the addition of Aβ25-35 (25 micromolars) (Ex: 485 nm and Em: 528 nm). 11. A reduction of 70% of ROS levels are indication for an anti-oxidant activity in this assay.
N2a neuronal cells were treated with Aβ25-35 (25 μM) and TTF. ROS levels were measured 20 hr later. The results are shown in FIG. 11 and are the mean±SEM of two different experiments (n=15).
(§1) N2a neuronal cells were treated with Aβ25-35 (25 μM) and achillolide A. Cytotoxicity (FIG. 27A) viability (FIG. 27B) and ROS levels (FIG. 27C) were measured 20 hr later. The results are the mean±SEM of two different experiments (n=16).

astrocytes = assay: Cellular antioxidant activity (ABAP peroxyl radicals) in astrocytes; type: cell-based; settings: for effect on ABAP-generated peroxyl radical (ROS) fluorescence: astrocytes, ABAP 0.6 mM
Description: In the cellular antioxidant activity (CAA) assay, cell viability was determined by a modification of the crystal violet assay (Kueng et al., 1989) as follows. At the end of cell treatments, cells were fixed with 150 μL of 5% (v/v) formaldehyde (in PBS) for 15 min at room temperature. Plates were washed by submersion in de-ionized water, dried and stained for 15 min with 150 μL of a 1% crystal violet solution. After careful aspiration of the crystal violet solution the plates were washed with de-ionized water, and dried prior to the solubilization of the bound dye with 150 μL of a 33% aqueous glacial acetic acid solution. The optical density of the plates was measured at 540 nm (with a 690 nm reference filter) in a microplate spectrophotometer.
Intracellular ROS production was detected using the non-fluorescent cell permeating compound, 2′7′-dichlorofluorescein diacetate (DCF-DA). DCF-DA is hydrolyzed by intracellular esterases and then oxidized by ROS to a fluorescent compound 2′-7′-DCF. Peroxyl radicals are generated by thermolysis of 2,2′-Azobis(amidinopropane) (ABAP) at physiological temperature. ABAP decomposes at approximately 1.36×10^−6s^−1 at 37° C., producing at most 1×10^12 radicals/mL/s (Bowry and Stocker, 1993; Niki et al., 1986; Thomas et al., 1997). Astrocytes (300,000 cells/well) were plated in DMEM containing 2% FBS, 8.4 mM HEPES, 2 mM glutamine, 100 U/mL penicillin and 100 μg/mL streptomycin, onto 24 well plates. In order to measure the ability of TTF to enter the cells and prevent the formation of dichlorofluorescein (DCF) by ABAP-generated peroxyl radicals, cells were incubated for 1 h with TTF. […] The fluorescence, which indicates ROS levels, was measured in a plate reader with excitation at 485 nm and emission at 520 nm.
2. […] Read “time 0” fluorescence (Ex: 485 nm and Em: 528 nm); 7. […] Read fluorescence at 3, 6, and 24 hr Ex: 485 nm and Em: 528 nm; 9. […]
Astrocytes were incubated with TTF or quercetin for 2 h. […] ABAP (0.6 mM) was added to the culture and the fluorescence intensity, representing ROS levels was measured. […]

N2a neuronal cells [2] = assay: Aβ25-35-induced neuronal cell death (LDH, crystal violet); type: cell-based; settings: Aβ25-35 25 μM, 20 hr; LDH and crystal violet
Description: Treat N2a neuronal cells with 25 micromolars of freshly diluted Aβ25-35 in the presence or absence of AcA or TTF.
N2a neuronal cells were treated with Aβ25-35 (25 μM) and TTF. Cytotoxicity (FIG. 10A) and viability (FIG. 10B) were obtained through LDH method and Crystal violet staining respectively and measured 20 hr later. The results are the mean±SEM of two different experiments (n=15).
as §1

p38 = assay: H2O2-induced p38 phosphorylation in astrocytes (ELISA); type: cell-based, rat; settings: astrocytes preincubated 2 h, H2O2 175 μM 40 min
Description: Astrocytes were treated with 175 μM of H2O2 for 40 min following preincubation with achillolide A for 2 h. The levels of phosphorylated and total MEK1 (FIG. 40A), phosphorylated and total ERK1/2 (FIG. 40B), phosphorylated SAPK/JNK (FIG. 40C) and phosphorylated p38 (FIG. 40D) were measured by ELISA. The results are means±SEM of two experiments (n=4) for MEK1 and ERK 1/2, one experiment for SAPK/JNK and p38 (n=2). ***p<0.001.

Row | SMILES | effect on Aβ25-35-induced ROS elevation (N2a neuronal cells [1]) | effect on ABAP-generated peroxyl radical (ROS) fluorescence (astrocytes) | cell viability in the cellular antioxidant activity assay (astrocytes; crystal violet, 20 h after ABAP) | effect on Aβ25-35-induced cytotoxicity (N2a neuronal cells [2]) | effect on H2O2-induced phosphorylation of p38 (p38)
1 | COc1cc(-c2oc3cc(OC)c(OC)c(O)c3c(=O)c2O)ccc1O [TTF, 3,5,4′-trihydroxy-6,7,3′-trimethoxyflavone] | prevents the elevation in ROS levels | moderated the increase in ROS-induced fluorescence | cell viability was not affected | prevents the cytotoxic effect at nanomolar concentrations | 
2 | C=C1CCC2=C(CO)C(=O)O[C@H]2/C=C(\C)[C@H](OC(C)=O)CC1=O [achillolide A] | prevents the elevation in ROS levels |  |  | prevents the cytotoxic effect at nanomolar concentrations | inhibitory effect
3 | O=c1c(O)c(-c2ccc(O)c(O)c2)oc2cc(O)cc(O)c12 [quercetin, 3,3′,4′,5,7-Pentahydroxyflavone, reference compound] |  | similarly effective as TTF |  |  | 
